Measurements: patent US20260048028A1, “Methods of Use for Disulfiram and Metabolites Thereof” (PS Therapy, Inc., priority 2022, published 2026)

Tests used:
C57BL/6 mice = assay: Alkali-burn injury in mice, slit-lamp scoring of corneal opacity and neovascularization; assay type: in vivo; conditions: topical three times daily for 7 days (NaDDC 300 μM); for corneal opacity mean score: grading scale 0 to 4, day 7 after alkali burn; for neovascularization score: scale 0 to 3, day 7 after alkali burn
Method: C57BL/6 mice were divided into three groups, control group 1 (n=6), group 2 (n=6) and group 3 (n=3). Each group consisted of mice with their left eye (“LE”) left undisturbed as a control, while the right eye (“RE”) of all mice in each group was subjected to alkali burn. Prior to inducing alkali burn, mice were anesthetized using an injection of an anesthetic cocktail containing ketamine (20 mg/ml) and xylazine (4 mg/ml) at a dose of approximately […] per 25 g mouse. Topical analgesia was provided using proparacaine hydrochloride (0.5%) on the corneal surface. A round filter paper piece (˜2 mm in diameter) was soaked in a 0.5 M NaOH solution. The NaOH-soaked filter paper was gently placed on the central cornea of the RE for precisely 30 seconds, generating an acute alkali burn. Following the removal of the filter paper, the RE was flushed gently with 10 ml of 1×PBS using a 10 ml syringe to ensure thorough removal of residual NaOH. Immediately after the eye flush, the treatment application was initiated for Group 2 and Group 3 mice. Group 1 was left untreated. For Group 2, a drop of 300 μM NaDDC was topically applied to the cornea of the RE. For Group 3, the RE was topically treated with commercially available prednisolone. The treatment was repeated three times daily for a duration of 7 days.
On the 7th day following the alkali burn, corneal images were captured using slit microscopy to monitor changes in corneal opacity and neovascularization. The degree of corneal injury was evaluated and scored in a blinded manner by trained observers. Corneal opacity was evaluated using a grading scale ranging from 0 to 4, where 0 represented a completely clear cornea, 1 indicated slight haziness with the iris and pupil easily visible, 2 denoted slight opacity with detectable iris and pupil, 3 indicated significant opacity with difficulty in detecting pupils, and 4 represented complete opacity with no view of the pupil. The degree of neovascularization was scored on a scale of 0 to 3, with 0 indicating no new vessels, 1 representing new vessels present at the corneal limbus, 2 denoting new vessels extending from the corneal limbus toward the corneal centre, and 3 indicating new vessels spanning the entire corneal centre. At the end of the treatment period, mice from control group 1 and NaDDC treated group 2 were sacrificed and the eyes were enucleated for further analysis, including RT-PCR studies, to investigate the expression levels of tumor necrosis factor alpha (“TNFα”), gasdermin D (“GSDMD”), intercellular adhesion molecule 1 (“ICAM1”) and transforming growth factor beta 1 (“TGFβ1”).

IL-8 mRNA = IL-8 mRNA levels in Aspergillus flavus infected human corneal epithelial cells; assay type: cell-based; conditions: HCE cells infected with A. flavus spores
Method: 3 sets of human corneal epithelial (“HCE”) cells were plated and assayed for IL-8 mRNA levels as a control. 9 sets of HC cells were then infected with […] of Aspergillus flavus spores. 16 hours post infection the cells were assayed for IL-8 mRNA levels. 3 sets of HCE cells were then administered DSF in DMSO. Several hours following administration of each, IL-8 mRNA levels were assayed.
3 sets of HCE cells were plated and assayed for IL-8 mRNA levels as a control. 9 sets of HC cells were then infected with […] of Aspergillus flavus spores. 16 hours post infection the cells were assayed for IL-mRNA levels. 3 sets of HCE cells were then each administered NaDDC in water. Several hours following administration of each, IL-8 mRNA levels were assayed.

IL-6 mRNA = IL-6 mRNA levels in HCE cells under hyperosmolarity; assay type: cell-based, human; conditions: 400 milliosmoles, 6 hours post hyperosmolarity induction, −control 290 milliosmoles
Method: Sets of HCE cells were plated in iso-osmotic solutions (290 milliosmoles) […] and assayed for IL-8 and IL-6 mRNA levels as a control. Sets of HC cells were subjected to hyperosmolarity conditions (i.e. placed in a solution having an osmolarity of 400 milliosmoles) either with or without NaDDC. 6 hours post hyperosmolarity induction the cells were assayed for IL-mRNA levels.

[1] = test system: tumor necrosis factor alpha (TNFα); assay: Alkali-burn injury in mice, RT-PCR expression of TNFα in eyes; assay type: in vivo; conditions: RT-PCR of enucleated eyes after 7 days of topical 300 μM NaDDC three times daily
Method: (§1) C57BL/6 mice were divided into three groups, control group 1 (n=6), group 2 (n=6) and group 3 (n=3). Each group consisted of mice with their left eye (“LE”) left undisturbed as a control, while the right eye (“RE”) of all mice in each group was subjected to alkali burn. Prior to inducing alkali burn, mice were anesthetized using an injection of an anesthetic cocktail containing ketamine (20 mg/ml) and xylazine (4 mg/ml) at a dose of approximately […] per 25 g mouse. Topical analgesia was provided using proparacaine hydrochloride (0.5%) on the corneal surface. A round filter paper piece (˜2 mm in diameter) was soaked in a 0.5 M NaOH solution. […]
(§2) On the 7th day following the alkali burn, corneal images were captured using slit microscopy to monitor changes in corneal opacity and neovascularization. The degree of corneal injury was evaluated and scored in a blinded manner by trained observers. Corneal opacity was evaluated using a grading scale ranging from 0 to 4, where 0 represented a completely clear cornea, 1 indicated slight haziness with the iris and pupil easily visible, 2 denoted slight opacity with detectable iris and pupil, 3 indicated significant opacity with difficulty in detecting pupils, and 4 represented complete opacity with no view of the pupil. […]

[2] = test system: intercellular adhesion molecule 1 (ICAM1); assay: Alkali-burn injury in mice, RT-PCR expression of ICAM1 in eyes; assay type: in vivo; conditions: RT-PCR of enucleated eyes after 7 days of topical 300 μM NaDDC three times daily
Method: as §1, §2

[3] = test system: transforming growth factor beta 1 (TGFβ1); assay: Alkali-burn injury in mice, RT-PCR expression of TGFβ1 in eyes; assay type: in vivo; conditions: RT-PCR of enucleated eyes after 7 days of topical 300 μM NaDDC three times daily
Method: as §1, §2

gasdermin D (GSDMD) = assay: Alkali-burn injury in mice, RT-PCR expression of GSDMD in eyes; assay type: in vivo; conditions: RT-PCR of enucleated eyes after 7 days of topical 300 μM NaDDC three times daily
Method: as §1, §2

[4] = DSF in DMSO given 16 hours post infection
[5] = NaDDC in water given 16 hours post infection

C[C@]12C=CC(=O)C=C1CC[C@@H]1[C@@H]2[C@@H](O)C[C@@]2(C)[C@H]1CC[C@]2(O)C(=O)CO [prednisolone, reference compound]
corneal opacity mean score (C57BL/6 mice): 2.67 | neovascularization score (C57BL/6 mice): 0

CCN(CC)C(=S)SSC(=S)N(CC)CC [DSF, 1,1′-disulfanediylbis(N,N-diethylmethanethioamide), reference compound]
IL-8 mRNA levels (% change from uninfected) (IL-8 mRNA; [4]): 21.2% | IL-8 mRNA levels (% reduction from water) (IL-8 mRNA; [4]): 88.5%

CCN(CC)C(=S)[S-].[Na+] [NaDDC, sodium;N,N-diethylcarbamodithioate]
IL-6 mRNA levels (% increase from −control) (IL-6 mRNA): 100% | expression level of TNFα, % of untreated control group [1]: 8% | ICAM1 expression, % of untreated control group [2]: 5% | TGFβ1 expression, % of untreated control group [3]: 28% | GSDMD expression, % of untreated control group (gasdermin D (GSDMD)): 42% | corneal opacity mean score (C57BL/6 mice): 0.83 | neovascularization score (C57BL/6 mice): 0 | IL-8 mRNA levels (% increase from uninfected) (IL-8 mRNA; [5]): 10.5% | IL-8 mRNA levels (% reduction from water) (IL-8 mRNA; [5]): 85.19%
